Results from patent publication US20110033387A1, “METHOD OF DETERMINATION OF PDH ACTIVITY AND IMAGING MEDIA FOR USE IN SAID METHOD” (GE HEALTHCARE LIMITED, priority 2007, published 2011).

Columns and labels:
[1] = tested on: PDH; assay: PDH activity by 13C-MR detection (13C-bicarbonate to 13C-pyruvate ratio) in STZ Type 1 diabetes model; format: in vivo, male Wistar rats; conditions: single i.p. injection 50 mg/kg, five days after induction, rat heart, each rat its own control
Method: Initial PDH activity (baseline) was determined in a first group of 6 rats according to Example 3. […] Five days after STZ-diabetes induction, PDH activity was determined again, each rat served as its own experimental control.
(§1) All rats were anaesthetised using isofluorane (2% in oxygen) and kept on a heated mat. Care was taken to maintain body temperature at 37° C. A catheter was introduced into the tail vein, and rats were then placed in a home-built animal handling system. ECG, respiration rate, and body temperature were monitored, and air heating was provided. Anaesthesia was continued by means of isofluorane (1.7%) delivered to a nose cone.
1 cm^3 of the imaging medium as prepared in Example 1 was injected over 10 s via the tail vein catheter in the anaesthetised rat. […]
(§2) The series of cardiac ^13C MR spectra were analysed using the AMARES algorithm as implemented in the jMRUI software package (Naressi et al., Computers in Biology and Medicine, 31(4), 2001, 269-286 and Naressi et al., Magnetic Resonance Materials in Physics, Biology and Medicine, 12(2-3), 2001, 141-152). […]
Maximum pyruvate peak area was calculated for each series of spectra, and was used to calculate maximum bicarbonate/pyruvate ratio. […] Parameters describing the kinetic progression of bicarbonate, namely time to appearance, time to maximum, and decay time to half maximum were also calculated.

[2] = tested on: PDH; assay: PDH flux by cardiac 13C-MR with imaging medium with or without malate, fed and fasted rats; format: in vivo, male Wistar rats; conditions: 40 μmol hyperpolarised 13C-pyruvate alone, fasted vs fed rats
Method: as §1
A home-built ^1H/^13C butterfly coil was fit over the rat chest, localising signal from the heart. Rats were positioned in a 7 T horizontal bore MR scanner interfaced to a Varian Inova console. Correct positioning was confirmed by the acquisition of an axial proton FLASH image (TE/TR=1.17/2.33 ms, Matrix size=64×64, FOV=60×60 mm, Slice thickness=2.5 mm, Excitation flip angle=15°). […]
as §2
Maximum pyruvate peak area was calculated for each series of spectra, and was used to calculate maximum bicarbonate/pyruvate ratio. […] Parameters describing the kinetic progression of bicarbonate, namely time to appearance, time to maximum, and decay time to half maximum were also calculated. […]

[3] = T1 relaxation of 13C1-pyruvate in human full blood; format: physicochemical; conditions: human full blood at 37° C.

CN(N=O)C(=O)N[C@H]1C(O)O[C@H](CO)[C@@H](O)[C@@H]1O (mixture of isomers) [STZ, Streptozotocin]
ratio of the 13C-bicarbonate to 13C-pyruvate peak amplitude / PDH activity, before vs after STZ injection [1]: decrease in PDH activity

CC(=O)C(=O)O [^13C1-pyruvate, sodium ^13C1-pyruvate]
PDH flux lower in fasted rats compared with fed rats [2]: 55%
T1 relaxation [3]: about 42 s
